According to patent US20250025473A1 (priority 2021, published 2025):
pIC50: −log10 of the molar value.

Tests used:
HSV-2(G) = experiment: HSV binding assay (gD Western blot); type: cell-based; details: 10 μM, HaCat, 4 hours at 4° C.
c-Src = c-Src (Homo sapiens, UniProt P12931); experiment: HotSpot in vitro kinase assay, c-Src; details: read-out: Compound IC50, c-Src; in vitro kinase activity
Insulin Receptor = Insulin Receptor (Homo sapiens, UniProt P06213); experiment: HotSpot in vitro kinase assay, Insulin Receptor
Sequence of Insulin Receptor (P06213 28-1382): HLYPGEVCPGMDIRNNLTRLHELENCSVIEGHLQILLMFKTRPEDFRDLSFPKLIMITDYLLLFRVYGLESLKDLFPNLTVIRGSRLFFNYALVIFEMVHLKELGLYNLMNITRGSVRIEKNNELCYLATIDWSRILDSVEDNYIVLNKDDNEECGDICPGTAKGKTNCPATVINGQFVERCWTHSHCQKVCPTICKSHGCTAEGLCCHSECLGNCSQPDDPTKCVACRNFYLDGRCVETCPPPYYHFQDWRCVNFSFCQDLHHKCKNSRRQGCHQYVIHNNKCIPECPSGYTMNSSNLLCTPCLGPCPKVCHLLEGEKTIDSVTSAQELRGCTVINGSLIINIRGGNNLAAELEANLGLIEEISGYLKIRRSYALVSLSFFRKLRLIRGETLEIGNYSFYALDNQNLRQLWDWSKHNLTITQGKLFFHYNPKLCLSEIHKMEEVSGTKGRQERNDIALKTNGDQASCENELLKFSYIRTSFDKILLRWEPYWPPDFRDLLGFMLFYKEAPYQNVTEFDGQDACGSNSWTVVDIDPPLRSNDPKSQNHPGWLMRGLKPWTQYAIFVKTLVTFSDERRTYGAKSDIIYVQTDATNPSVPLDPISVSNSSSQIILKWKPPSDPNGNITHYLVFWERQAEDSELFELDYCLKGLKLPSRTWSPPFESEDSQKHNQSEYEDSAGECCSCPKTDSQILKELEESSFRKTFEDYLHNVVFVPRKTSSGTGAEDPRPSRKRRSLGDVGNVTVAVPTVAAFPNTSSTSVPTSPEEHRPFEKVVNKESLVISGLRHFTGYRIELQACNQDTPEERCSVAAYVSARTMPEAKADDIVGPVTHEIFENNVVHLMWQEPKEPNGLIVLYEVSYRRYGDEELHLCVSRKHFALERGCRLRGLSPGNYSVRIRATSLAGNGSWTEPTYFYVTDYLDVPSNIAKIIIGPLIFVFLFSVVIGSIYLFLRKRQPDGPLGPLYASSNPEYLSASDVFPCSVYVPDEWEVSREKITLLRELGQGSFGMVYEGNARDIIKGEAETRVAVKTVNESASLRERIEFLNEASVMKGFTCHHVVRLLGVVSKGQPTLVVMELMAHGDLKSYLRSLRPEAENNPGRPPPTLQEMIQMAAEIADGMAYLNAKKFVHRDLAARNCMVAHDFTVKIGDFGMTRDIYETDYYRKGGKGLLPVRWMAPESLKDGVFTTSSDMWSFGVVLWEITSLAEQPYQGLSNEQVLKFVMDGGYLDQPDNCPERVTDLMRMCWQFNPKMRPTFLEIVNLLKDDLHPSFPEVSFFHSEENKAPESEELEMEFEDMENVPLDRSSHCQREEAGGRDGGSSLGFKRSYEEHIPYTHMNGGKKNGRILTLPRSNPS

[1] = test system: primary vaginal epithelial cells; experiment: Proliferation and viability, primary vaginal epithelial cells; type: cell-based, human; details: 10 or 50 μM, about 50% confluent primary vaginal epithelial cells, up to 120 h
Experimental: Results are presented as mean±SEM odu as a percentage of the DMSO control (n=2 independent experiments each conducted in duplicate for C and 1 experiment conducted in duplicate for D). Results in B-D were compared by ANOVA, *p<0.05, **p<0.01, ***p<0.001, ****p<0.0001).
Cell proliferation and viability were determined using the Cell Titer 96® Aqueous One Solution and optical density was determined using a SpectraMax® M5e Molecular Devices multidetection microplate reader. […] The cells were then fixed and stained for activated caspases (red) and SYTOX Green (for integrity of plasma membrane) by Image-iT™ LIVE red Poly Caspase Detection kit. Nuclei were stained with Hoechst. Images were acquired by laser confocal microscope ZeissLive/DuoScan equipped with oil immersion objectives 63×1.1 and captured in an optical slice of 0.37 μm with appropriate filters. Alternatively, immunoblots were prepared and probed with antibodies to cleaved PARP-1 or cleaved caspase 8.

PDPK1 = biological target: T1, PDPK1 (Homo sapiens, UniProt O15530); experiment: HotSpot in vitro kinase assay, PDPK1; type: biochemical
T1 construct: purchased Reaction Biology Corporation
T1 sequence (O15530 1-556): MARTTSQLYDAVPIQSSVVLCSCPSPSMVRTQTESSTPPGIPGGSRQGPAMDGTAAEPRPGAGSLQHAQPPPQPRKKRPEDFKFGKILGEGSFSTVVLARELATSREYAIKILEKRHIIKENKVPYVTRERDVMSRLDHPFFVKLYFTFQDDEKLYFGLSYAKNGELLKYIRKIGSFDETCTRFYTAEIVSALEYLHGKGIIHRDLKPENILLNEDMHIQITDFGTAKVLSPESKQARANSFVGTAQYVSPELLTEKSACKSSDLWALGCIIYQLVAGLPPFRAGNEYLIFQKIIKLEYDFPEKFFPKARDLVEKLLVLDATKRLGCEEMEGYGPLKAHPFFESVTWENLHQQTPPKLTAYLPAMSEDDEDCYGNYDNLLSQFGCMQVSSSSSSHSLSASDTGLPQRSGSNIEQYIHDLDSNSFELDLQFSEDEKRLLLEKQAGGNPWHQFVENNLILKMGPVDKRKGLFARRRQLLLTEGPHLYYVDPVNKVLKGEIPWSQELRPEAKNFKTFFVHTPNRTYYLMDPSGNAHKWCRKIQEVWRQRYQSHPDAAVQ

AKT2 = biological target: T2, AKT2 (Homo sapiens, UniProt P31751); experiment: HotSpot in vitro kinase assay, AKT2; type: biochemical
T2 construct: purchased Reaction Biology Corporation
T2 sequence (P31751 whole entry): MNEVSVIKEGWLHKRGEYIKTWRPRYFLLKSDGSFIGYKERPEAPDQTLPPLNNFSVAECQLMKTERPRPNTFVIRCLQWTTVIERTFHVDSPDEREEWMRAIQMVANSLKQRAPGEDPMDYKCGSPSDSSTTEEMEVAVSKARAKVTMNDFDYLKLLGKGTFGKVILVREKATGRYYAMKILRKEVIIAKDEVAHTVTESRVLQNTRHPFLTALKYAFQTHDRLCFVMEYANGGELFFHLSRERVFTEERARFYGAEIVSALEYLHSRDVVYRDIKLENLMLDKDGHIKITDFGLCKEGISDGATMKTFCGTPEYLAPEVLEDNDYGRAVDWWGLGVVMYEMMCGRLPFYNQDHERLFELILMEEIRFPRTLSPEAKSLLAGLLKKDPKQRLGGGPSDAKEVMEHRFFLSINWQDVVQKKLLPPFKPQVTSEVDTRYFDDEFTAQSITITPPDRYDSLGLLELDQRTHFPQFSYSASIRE

[2] = test system: phosphatidylserine (PtdS) and Akt; experiment: Translocation of PtdS and Akt to the outer leaflet after HSV-2 (confocal, non-permeabilized); type: cell-based, human; details: 10 μM, HaCat, HSV-2(G)

Sequence of c-Src (P12931 whole entry): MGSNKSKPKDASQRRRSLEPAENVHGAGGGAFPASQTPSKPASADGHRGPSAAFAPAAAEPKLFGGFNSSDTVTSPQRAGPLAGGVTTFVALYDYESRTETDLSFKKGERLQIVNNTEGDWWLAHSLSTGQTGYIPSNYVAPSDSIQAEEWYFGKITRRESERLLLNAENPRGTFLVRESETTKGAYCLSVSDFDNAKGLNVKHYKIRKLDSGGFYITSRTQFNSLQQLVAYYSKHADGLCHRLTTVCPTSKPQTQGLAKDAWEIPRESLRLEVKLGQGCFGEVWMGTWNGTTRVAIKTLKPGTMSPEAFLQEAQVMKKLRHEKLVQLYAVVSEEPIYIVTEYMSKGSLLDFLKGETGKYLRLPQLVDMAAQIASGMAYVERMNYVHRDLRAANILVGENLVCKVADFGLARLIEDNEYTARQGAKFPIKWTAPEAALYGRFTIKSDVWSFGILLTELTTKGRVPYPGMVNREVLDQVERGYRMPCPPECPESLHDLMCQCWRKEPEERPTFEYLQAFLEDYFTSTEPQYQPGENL

Which results are given for `CO[C@@H]1[C@H](N(C)C(=O)CCC(=O)NCc2cn(CCCS(=O)(=O)[O-])nn2)C[C@H]2O[C@]1(C)n1c3ccccc3c3c4c(c5c6ccccc6n2c5c31)C(=O)NC4.[Na+]` [CIMSS]?
HSV binding to cells (HSV-2(G)): did not block; pIC50 (c-Src): 7.92; fold less effective than staurosporine (IC50), insulin receptor (Insulin Receptor): ~40 fold; pIC50 (Insulin Receptor; read-out: Compound IC50, Insulin Receptor, in vitro kinase activity): 6.10; cytotoxicity [1]: little or no cytotoxicity; IC50 for PDPK1 compared with staurosporine (PDPK1): comparable; pIC50 (PDPK1; in vitro kinase activity, read-out: Compound IC50, PDPK1): 9.56; inhibition at 10 µM (PDPK1; read-out: inhibition of PDPK1): > 75%; pIC50 (AKT2; in vitro kinase activity, read-out: Compound IC50, AKT2): 6.00; inhibition at 10 µM (AKT2; read-out: inhibition of Akt2): > 75%; translocation of PtdS and Akt to the outer leaflet of the plasma membrane [2]: did not block
